Like-named read-outs stand apart in the source and are kept apart here.
Columns and labels:
[1] = test system: Influenza B/LEE/40; test: microbe, parasite or virus in culture; assay type: cell-based; settings: NHBE
[2] = test system: HIV-1 clinical isolates; test: Antiviral assay against HIV-1 clinical isolates in fresh human PBMCs (RT endpoint)
[3] = test system: Influenza A/PC/1/73; test: microbe, parasite or virus in culture; assay type: cell-based; settings: NHBE
[4] = test system: HIV-1 BaL; settings: primary CD4+ T-cells, 35 days, drug at tissue culture equivalent clinical Cmin (FTC 160 × EC50)
[5] = test system: HIV-1 clonal variants; test: PhenoSense integrase assay, clonal variants from EVG/COBI/FTC/TDF virologic failures; assay type: cell-based; settings: Human immunodeficiency virus 1, NL43, read-out: mean EC50 of wild-type virus
Excerpt: Clonal Analysis of HIV-1 from Patients. Plasma from 16 patients treated in Studies GS-US-236-0102 and GS-US-236-0103 with confirmed virologic failure and resistance development in the HIV-1 integrase gene were sent to Monogram Biosciences (South San Francisco, CA) for clonal analysis. The HIV-1 RNA was isolated and the cDNA was synthesized using Monogram proprietary primers. Using proprietary primers, PCR amplification of the entire protease, reverse transcriptase, and integrase coding regions of the pol gene were performed. PCR products were inserted into T/A cloning vectors.
Approximately 20 clones were chosen per patient sample for sequencing using proprietary primers. A subset of clones was chosen for phenotypic analysis based on the presence of INSTI resistance mutations. Resistance test vectors containing the patient-derived integrase coding region from selected clones were constructed using standard Monogram Biosciences protocols. […]
values) in these clones were obtained through a contract study by Monogram Biosciences using the PhenoSense integrase assay. The fold-change from the NL4-3 wild-type reference vector values was determined.

[6] = test system: HCV 1b Replicon; test: Anti-HCV activity, HCV 1b replicon; settings: Hepatitis C virus, Huh-7
[7] = test system: HIV-1 IIIb; test: Antiviral assay in MT-2 cells; assay type: cell-based
Protocol: For the antiviral assay utilizing MT-2 and MT-4 cells, 50 μl of a 2× test concentration of 5-fold serially diluted compound in culture medium with 10% FBS was added to each well of a 96-well plate (9 concentrations) in triplicate. MT-2 and MT-4 cells were infected with HIV-1 IIIb at a multiplicity of infection (MOI) of 0.01 for 3 h. Fifty microliters of infected cell suspension in culture medium with 10% FBS (∼1.5 × 10^4 cells) then was added to each well containing 50 μl of diluted compound. The plates were then incubated at 37°C for 5 days. After 5 days of incubation, 100 μl of CellTiter-Glo reagent (Promega Biosciences, Inc., Madison, WI) was added to each well containing MT-2 or MT-4 cells. Cell lysis was carried out by incubation at room temperature for 10 min and chemiluminescence was read. For compound cytotoxicity assessment, the protocol was identical except that uninfected cells were used and compounds were serially diluted 3-fold.

[8] = test system: HIV-1 BaL; test: Antiviral assay in monocyte-derived macrophages (p24 ELISA); settings: Human immunodeficiency virus 1, BAL, Macrophage
Excerpt: Freshly isolated human peripheral blood mononuclear cells (PBMCs) were obtained from healthy volunteers (supplied by AllCells, Inc., Alameda, CA). Blood donors were negative for HIV-1, hepatitis B, and hepatitis C viral infections. CD4^+ T lymphocytes were isolated by negative selection using a magnetically labeled antibody cocktail ([sequence] Technologies Inc., Vancouver, Canada) and cultured in RPMI cell culture media (Life Technologies, Grand Island, NY) supplemented with 10% FBS. CD4^+ T cells were activated for 48 h at 37°C by addition of 1 μg/ml phytohemagglutinin (PHA; Sigma, St. Louis, MO) and 5 ng/ml interleukin-2 (IL-2; Roche Diagnostics, Indianapolis, IN).
A 3-fold serial dilution of test compounds in RPMI medium was added to triplicate wells and incubated at 37°C for 5 days. Human monocytes were seeded on 96-well plates at a density of 3 × 10^5 cells per well, differentiated into adherent macrophages, and then infected with HIV-1 BaL virus in 50 μl RPMI for 3 h at 37°C. […] The supernatants derived from the CD4^+ T-cell and macrophage cultures were harvested 6 and 12 days postinfection, respectively, and the amount of HIV present was quantified by p24 enzyme-linked immunosorbent assay (ELISA) (PerkinElmer, Waltham, MA).

[9] = test system: NRTI-, NNRTI- and PI-Resistant HIV-1 Mutants; test: Antiviral activity against NRTI-, NNRTI- and PI-resistant HIV-1 mutants; assay type: cell-based; settings: Human immunodeficiency virus 1; WT, Table S7
[10] = test system: HIV-1 IIIb; test: microbe, parasite or virus in culture; settings: Human immunodeficiency virus 1, IIIB, MT4
Protocol: Each compound series was prepared several times independently in quadruplicate to capture the variations in Hill slope associated with preparation of compound serial dilutions. The assay was performed in a 384-well format. MT-4 cells were infected in bulk at the same MOI as that described above, and the plates were developed with CellTiter-Glo reagent 5 days postinfection.

[11] = test system: HIV-2 CDC 310319; test: Antiviral assay against HIV-2 isolate in fresh human PBMCs (RT endpoint); settings: Human immunodeficiency virus 2, PBMC
[12] = test system: inhibitor-selected HIV-1 IIIb passages; test: Phenotypic profile of selected HIV-1 passages; assay type: cell-based; settings: Human immunodeficiency virus 1, IIIB
[13] = test system: INSTI-resistant HIV-1 mutants (HXB2); test: microbe, parasite or virus in culture; assay type: cell-based

Compound `O=C(NCc1c(F)cc(F)cc1F)c1cn2c(c(O)c1=O)C(=O)N1[C@H]3CC[C@H](C3)O[C@@H]1C2` [BIC, Bictegravir] has an EC50 [1] of 37200 nM, an EC50 ([2]; Human immunodeficiency virus 1, BAL, PBMC, HIV-1 subtype B isolate BaL, human PBMCs) of 0.35 ± 0.12 nM and an EC50 ([2]; Human immunodeficiency virus 1, PBMC, HIV-1 subtype A isolate 92RW016, human PBMCs) of 0.71 ± 0.26 nM. It also gave an EC50 ([2]; Human immunodeficiency virus 1, PBMC, HIV-1 subtype A isolate 92UG037, human PBMCs) of 1.5 ± 0.6 nM, an EC50 ([2]; Human immunodeficiency virus 1, PBMC, HIV-1 subtype B isolate 89BZ_167, human PBMCs) of 1 ± 0.5 nM and an EC50 ([2]; Human immunodeficiency virus 1, PBMC, HIV-1 subtype B isolate 91US001, human PBMCs) of 0.89 ± 0.17 nM. For the same compound, the EC50 ([2]; Human immunodeficiency virus 1, PBMC, HIV-1 subtype B isolate 91US004, human PBMCs) was 1.2 ± 0.4 nM, the EC50 ([2]; Human immunodeficiency virus 1, PBMC, HIV-1 subtype C isolate 93IN905, human PBMCs) was 0.15 ± 0.01 nM and the EC50 ([2]; Human immunodeficiency virus 1, PBMC, HIV-1 subtype C isolate 98US_MSC5016, human PBMCs) was 1.2 ± 0.2 nM. The EC50 ([2]; Human immunodeficiency virus 1, PBMC, HIV-1 subtype D isolate 98UG_57128, human PBMCs) was 0.33 ± 0.01 nM, the EC50 ([2]; Human immunodeficiency virus 1, PBMC, HIV-1 subtype E isolate 96TH_M02138, human PBMCs) was 0.51 ± 0.17 nM and the EC50 ([2]; Human immunodeficiency virus 1, PBMC, HIV-1 subtype E isolate 96TH_NI1046, human PBMCs) was 0.25 ± 0.06 nM. For the same compound, the EC50 ([2]; Human immunodeficiency virus 1, PBMC, HIV-1 subtype F isolate 93BR020, human PBMCs) was 1.2 ± 0.5 nM, the EC50 ([2]; Human immunodeficiency virus 1, PBMC, read-out: mean EC50 against clinical isolates, 14 HIV-1 isolates and one HIV-2 isolate, human PBMCs) was 0.81 nM and the EC50 ([2]; Human immunodeficiency virus 1, PBMC, read-out: range of EC50s against clinical isolates, 14 HIV-1 isolates and one HIV-2 isolate, human PBMCs) was 0.04 to 1.7 nM. The EC50 [3] was 53500 nM, the “Frequency of Viral Breakthrough with RAMs” value [4] was 0% and the “p24+ Wells” value [4] was 0/24. It also gave an EC50 [5] of 1.55 nM, an EC50 [6] greater than 44000 nM and an EC50 ([7]; Human immunodeficiency virus 1, IIIB, MT2, T-cell lines and primary human T lymphocytes, read-out: 50% effective concentrations) of 1.5 to 2.4 nM. It also gave an EC50 ([7]; Human immunodeficiency virus 1, MT2, 120 h, MT-2 cells, HIV-1 IIIb, 5 days, read-out: EC50) of 1.5 ± 0.2 nM, an EC50 [8] of 6.6 ± 4.1 nM and an EC50 [9] of 1.7 ± 0.5 nM. It also gave an EC50 [10] of 1.9 ± 0.6 nM, an EC50 [11] of 1.7 ± 1 nM and an EC50 ([12]; 480 h, selected virus EVG P2 (day 20, 7.2 nM)) of 5.8 nM. It also gave an EC50 ([12]; HIV-1-IIIb (unselected)) of 2.2 nM, an EC50 ([12]; selected virus BIC P3 (day 47, 6 nM)) of 3.8 nM and an EC50 ([12]; selected virus BIC P5 (day 71, 12 nM)) of 5.8 nM. For the same compound, the EC50 ([12]; selected virus BIC P6 (day 86, 24 nM)) was 7.8 nM, the EC50 ([12]; selected virus BIC P8 (day 156, 96 nM)) was 11.2 nM and the EC50 ([12]; selected virus BIC P9 (day 181, 192 nM)) was 17.5 nM. For the same compound, the EC50 ([12]; selected virus BIC P10 (day 234, 384 nM)) was 13.5 nM, the EC50 ([12]; selected virus DTG P3Lo (day 59, 6.4 nM)) was 2.9 nM and the EC50 ([12]; selected virus DTG P4 (day 87, 9.6 nM)) was 7.8 nM. For the same compound, the EC50 ([12]; selected virus DTG P5 (day 97, 14.4 nM)) was 10.6 nM, the EC50 ([12]; selected virus DTG P7 (day 139, 32.4 nM)) was 21.8 nM and the EC50 ([12]; selected virus DTG P9 (day 174, 72.9 nM)) was 23.8 nM. The EC50 ([12]; selected virus DTG P10 (day 202, 109.4 nM)) was 30 nM, the EC50 ([12]; selected virus EVG P4 (day 41, 28.8 nM)) was 6.5 nM and the EC50 ([12]; selected virus EVG P6 (day 56, 115 nM)) was 6.8 nM. For the same compound, the EC50 ([12]; selected virus EVG P7 (day 67, 230 nM)) was 8.9 nM, the EC50 ([12]; selected virus EVG P9 (day 94, 922 nM)) was 6.8 nM and the EC50 ([12]; selected virus EVG P10 (day 119, 1843 nM)) was 2.9 nM. The EC50 ([13]; Human immunodeficiency virus 1, HXB2, IN mutant E92Q) was 2 ± 0.8 nM, the EC50 ([13]; Human immunodeficiency virus 1, HXB2, IN mutant E92Q/N155H) was 2 ± 0.2 nM and the EC50 ([13]; Human immunodeficiency virus 1, HXB2, IN mutant E138K/Q148K) was 13.7 ± 1.2 nM. It also gave an EC50 ([13]; Human immunodeficiency virus 1, HXB2, IN mutant G140S/Q148R) of 3.1 ± 0.8 nM, an EC50 ([13]; Human immunodeficiency virus 1, HXB2, IN mutant M50I (BIC/DTG selection)) of 1.9 ± 0.3 nM and an EC50 ([13]; Human immunodeficiency virus 1, HXB2, IN mutant M50I/R263K (BIC selection)) of 4.2 ± 0.9 nM. The EC50 ([13]; Human immunodeficiency virus 1, HXB2, IN mutant M50I/S119R/R263K (DTG selection)) was 6.4 ± 1.6 nM, the EC50 ([13]; Human immunodeficiency virus 1, HXB2, IN mutant N155H) was 1.6 ± 0.4 nM and the EC50 ([13]; Human immunodeficiency virus 1, HXB2, IN mutant N155H/Q148R) was 7.1 ± 4.3 nM. The EC50 ([13]; Human immunodeficiency virus 1, HXB2, IN mutant Q148R) was 1 ± 0.3 nM, the EC50 ([13]; Human immunodeficiency virus 1, HXB2, IN mutant R263K (BIC/DTG selection), Table 7) was 3.2 ± 0.7 nM and the EC50 ([13]; Human immunodeficiency virus 1, HXB2, IN mutant R263K, Table 6) was 2.9 ± 0.7 nM. The EC50 ([13]; Human immunodeficiency virus 1, HXB2, IN mutant S119R (DTG selection)) was 2.7 ± 0.7 nM, the EC50 ([13]; Human immunodeficiency virus 1, HXB2, IN mutant S119R/R263K (DTG selection)) was 4.2 ± 1.3 nM and the EC50 ([13]; Human immunodeficiency virus 1, HXB2, IN mutant S153Y (DTG selection)) was 3.9 ± 0.7 nM. For the same compound, the EC50 ([13]; Human immunodeficiency virus 1, HXB2, IN mutant S153Y/R263K (DTG selection)) was 8.3 ± 1.4 nM, the EC50 ([13]; Human immunodeficiency virus 1, HXB2, IN mutant Y143R) was 1.8 ± 0.5 nM and the EC50 ([13]; Human immunodeficiency virus 1, HXB2, WT (HXB2), Table 6, read-out: EC50) was 1.6 ± 0.4 nM. The EC50 ([13]; Human immunodeficiency virus 1, HXB2, WT (HXB2), Table 7, read-out: EC50) was 1.5 ± 0.3 nM and the “cross-resistance to single-mutant HIV-1 variants” value ([13]; {}) was 1-2 fold.
